Results reported in US6692927B2, “Bax degradation involvement in tumor survival and progression” (University of South Florida, priority 2000, dated 2004).
Where a SMILES comes first, the peptide text is derived from it. [ ]: non-standard residue; d: D form. The star is where a group is joined. Nva = CCC[C@H](N)C(=O)O; Cbz = O=C(OCc1ccccc1)*

Legend:
Bax degradation activity = experiment: cell-free Bax degradation assay, inhibitor added to MCF-7 cell extract; type: biochemical, human; conditions: 10-minute preincubation of MCF-7 cell extract with inhibitor (100 mM per FIG. 9C legend), 37° C., 4 h
Method: (§1) FIGS. 9A-9F show Bax degradation depends on ubiquitination, proteasome and ATP. (FIG. 9A) Jurkat cells (0 h) were treated with either 50 μM LLnV or 10 μM lactacystin, followed by preparation of Bax immunoprecipitates (with clone 6A7), which were immunoblotted with an ubiquitin antibody. Positions of putative ubiquitinated Bax proteins (p47, p55) are indicated at left. The nature of the ˜30 kDa and ˜84 kDa remains unclear. (FIG. 9B) The [^35S]-labeled Bax (upper) or Bcl-2 (lower) protein (1 μl) were incubated at 37° C. for 2 h with either buffer Z only (lane 1) or […] protein extract of MCF-7 cells grown exponentially (lane 2) or pretreated for 8 h with […] LLnV (lane 3). (FIG. 9C) The [^35S]-labeled Bax protein (1 μl) was incubated with either buffer Z only (lane 1) or 100 μg MCF-7 cell lysate at 37° C. for 4 h, in the presence of an indicated inhibitor (100 mM; lanes 3-8) or an equal volume of DMSO (lane 2) in buffer Z. A weak band of ˜16 kDa (indicated by an arrow) is probably an intermediate product of proteasome-mediated Bax degradation. (FIG. 9D) The proteasome in MCF-7 whole cell lysate (W lys, lane 1) was precipitated by using either ultraspin (ULS) or a proteasome subunit a6 antibody (IP). Both supernatant (lanes 2, 4) and pellet (lanes 3, 5) fractions were examined by Western blot assay using antibody to the proteasome a6 subunit (MW 33 kDa). (FIG. 9E) Bax degradation assay was performed as in FIG. 9B, with addition of buffer Z (lane 1) or 100 μg protein from MCF-7 whole cell lysate (lane 2), ultraspun supernatant (lane 3) or plus the pellet (lane 4), immunodepleted supernatant (lane 5) or plus a purified 20S proteasome ([…]; lane 6), or the purified proteasome alone (2 μg; lane 7). (FIG. 9F) Bax degradation assay was performed as in FIG. 9B, in the absence (lane 3) or presence of 10 mM ATP (lane 2) or 10 mM ATP-y-S (lane 4).
In vitro Bax Degradation Assay: Human Bax-a cDNA subcloned into pcDNA3 was a gift from Dr. Hong-gang Wang. Human full length of bcl-2-a cDNA was cloned from Jurkat T cells and subcloned into pcDNA3.1(−) as described+. Both bax and bcl-2 plasmids were used for coupled in vitro transcription/translation (Promega; Madison, Wis.) in the presence of [^35S]methionine (Amersham Pharmacia Biotech; Piscataway, N.J.). Protein extracts were prepared from either MCF-7 cells or prostate tumor tissues in buffer Y (50 mM Tris-HCl, pH 7.4, 250 mM NaCl, 1% Triton X-100, 0.1% SDS, 1 mM EDTA), and used for Bax (or Bcl-2) degradation assay. Briefly, 1 microl of [^35S]-labeled Bax (or Bcl-2) protein was incubated at 37° C. for 2-4 hours with 100-200 microg protein extract in buffer Z (50 mM Tris-HCl, pH 7.4, 5 mM MgCl2, 3 mM DTT, 10 mM ATP, 10 mM phosphocreatine, 10 microg/ml creatine phosphokinase, 10 microg/ml aprotinin, 10 microg/ml leupeptin, 10% glycerol and 2 microg/ml ubiquitin). After incubation, the samples were subjected to gel electrophoresis and autoradiography. Under the cell-free assay conditions, the calpain-mediated Bax cleavage activity was blocked by omission of calcium and addition of the protease inhibitor leupeptin (Wood et al, 1998). To deplete the proteasome, MCF-7 cell lysates were either immunoprecipitated with the 20S proteasome subunit a6 antibody or ultracentrifugated at 100,000×g for 6 hours. The proteasome-enriched pellet fraction was resuspended in buffer Y.
To further study the proteasome activity that degrades Bax protein, a cell-free Bax degradation assay was developed by using an in vitro-translated, [^35S]-labeled Bax protein as substrate (FIG. 9B, upper, lane 1). The Bax degradation activity is present in protein extracts prepared from exponentially growing MCF-7 (FIG. 9), K562, VA-13, WI-38, Jurkat T or HL-60 cells. The labeled Bax was almost completely degraded by a MCF-7 cell extract after 2 to 4 hours incubation at 37° C. (FIG. 9B, upper, and FIG. 9C, lanes 2 vs. 1). […]

Jurkat T cells = experiment: Western blot and Bax IP/ubiquitin blot in Jurkat T cells; type: cell-based, human
Method: FIGS. 8A-8D show proteasome inhibition accumulates Bax to mitochondria/cytoplasm and increases interaction between Bax and Bcl-2 proteins. Jurkat cells (0 h; FIG. 8A and FIG. 8B) or Jurkat cells overexpressing Bcl-2 (0 h; FIG. 8C and FIG. 8D) were treated by either 10 μM lactacystin (FIGS. 8A-8C), 50 μM LLnV (FIG. 8D), or 50 μM LLM (FIG. 8A and FIG. 8B) for the indicated hours. (FIG. 8A and FIG. 8B) Western blotting with antibodies to PARP and Bax were performed as described in FIG. 7. (FIG. 8C) Immunohistochemistry (see MATERIALS AND METHODS). Localization of Bax protein (green) and nuclei (red) are shown. (FIG. 8D) Bax immunoprecipitates, prepared by an agarose-conjugated N-20 Bax antibody, were immunoblotted first with the 6A7 Bax antibody (upper) and then reblotted with a Bcl-2 antibody (lower).
as §1, with “4). […]” for “4).”

Structure (SMILES)	Bax degradation process/activity (Bax degradation activity)	p55 and p47 levels (putative ubiquitinated Bax) (Jurkat T cells; 50 μM LLnV, 8 hours)	p55 and p47 levels (putative ubiquitinated Bax) (Jurkat T cells; 10 μM lactacystin, 4 hours)	Bax accumulation and PARP cleavage (Jurkat T cells; 10 microM)
CCC[C@@H](C=O)NC(=O)[C@H](CC(C)C)NC(=O)[C@H](CC(C)C)NC(=O)OCc1ccccc1 [LLnV] (Cbz-Leu-Leu-[Nva]-aldehyde)	blocked	significantly increased	–	–
CC(=O)N[C@@H](CSC(=O)[C@]1([C@@H](O)C(C)C)NC(=O)[C@H](C)[C@@H]1O)C(=O)O [lactacystin]	not	–	significantly increased	induced Bax accumulation and PARP cleavage
